Laboratory results: PubChem BioAssay AID248 (DTP/NCI, 2004)
Where “and” joins values, the source holds several entries; their conditions need not be identical. Equal entries are not always repeated. Toxic doses and inconclusive results are not listed. Rule as the data show it: active = T/C of 150% or more; inactive = T/C below 125%.

System: L1210 leukemia ip in BDF1 mice, survival T/C
Experiment: NCI In Vivo Anticancer Drug Screen. Data for tumor model L1210 Leukemia (intraperitoneal) in B6D2F1 (BDF1) mice
Conditions: endpoint: mean survival time, higher = longer survival
Procedure, shortened: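 Mice bearing the transplanted tumor received compound or vehicle. Survival of the treated group was divided by that of the vehicle-treated control group to give the ratio.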

[1] = dose: 100.0 mg/kg/injection, schedule: Q01DX009 (ip), vehicle: saline
[2] = dose: 200.0 mg/kg/injection, schedule: Q01DX009 (ip), vehicle: saline
[3] = dose: 400.0 mg/kg/injection, schedule: Q01DX009 (ip), vehicle: saline
[4] = dose: 75.0 mg/kg/injection, schedule: Q01DX001 (ip), vehicle: saline
[5] = dose: 150.0 mg/kg/injection, schedule: Q01DX001 (ip), vehicle: saline
[6] = dose: 300.0 mg/kg/injection, schedule: Q01DX001 (ip), vehicle: saline
[7] = dose: 50.0 mg/kg/injection, schedule: Q01DX001 (ip), vehicle: saline
[8] = dose: 100.0 mg/kg/injection, schedule: Q01DX001 (ip), vehicle: saline
[9] = dose: 200.0 mg/kg/injection, schedule: Q01DX001 (ip), vehicle: saline
[10] = dose: 400.0 mg/kg/injection, schedule: Q01DX001 (ip), vehicle: saline
[11] = dose: 100.0 mg/kg/injection, schedule: Q04DX003 (ip), vehicle: saline
[12] = dose: 200.0 mg/kg/injection, schedule: Q04DX003 (ip), vehicle: saline
[13] = dose: 400.0 mg/kg/injection, schedule: Q04DX003 (ip), vehicle: saline
[14] = dose: 100.0 mg/kg/injection, schedule: Q01DX009 (ip), vehicle: saline with Tween-80
[15] = dose: 100.0 mg/kg/injection, schedule: Q04DX003 (ip), vehicle: saline with Tween-80
[16] = dose: 200.0 mg/kg/injection, schedule: Q01DX009 (ip), vehicle: saline with Tween-80
[17] = dose: 200.0 mg/kg/injection, schedule: Q04DX003 (ip), vehicle: saline with Tween-80
[18] = dose: 400.0 mg/kg/injection, schedule: Q04DX003 (ip), vehicle: saline with Tween-80
[19] = dose: 100.0 mg/kg/injection, schedule: Q04DX002 (ip), vehicle: Klucel (hydroxypropylcellulose) (HPC)

Measured: T/C

OC1OCCOC1O (stereo not given)
inactive: dose: 50.0 mg/kg/injection, schedule: Q01DX009 (ip), vehicle: saline 100 % of control | [1] 100 % of control | [2] 109 % of control | [3] 103 % of control

Cc1[nH]nc2c(=O)[nH]c(=O)[nH]c12
inactive: [4] 100 % of control | [5] 103 % of control | [6] 107 % of control

CSCCc1ccccn1
inactive: [7] 98 % of control | [8] 104 % of control | [9] 98 % of control | [10] 110 % of control

COc1ccc2c(c1C)CCC1(CO)CC(C)=CCC21 (stereo not given)
inactive: dose: 100.0 mg/kg/injection, schedule: Q01DX009 (ip), vehicle: saline sonified 93 % of control | dose: 200.0 mg/kg/injection, schedule: Q01DX009 (ip), vehicle: saline sonified 94 % of control | dose: 400.0 mg/kg/injection, schedule: Q01DX009 (ip), vehicle: saline sonified 91 % of control

C[S+]1CCC(N)C(=O)C1 (stereo not given)
inactive: dose: 12.5 mg/kg/injection, schedule: Q04DX002 (ip), vehicle: saline 103 % of control | dose: 25.0 mg/kg/injection, schedule: Q04DX002 (ip), vehicle: saline 120 % of control | dose: 50.0 mg/kg/injection, schedule: Q04DX002 (ip), vehicle: saline 113 % of control and 91 % of control | dose: 100.0 mg/kg/injection, schedule: Q04DX002 (ip), vehicle: saline 103 % of control

CCCCCCCCCC/C=C/c1c(C)[nH]c2ccccc2c1=O
inactive: dose: 100.0 mg/kg/injection, schedule: Q01DX009 (ip), vehicle: alcohol 98 % of control | dose: 100.0 mg/kg/injection, schedule: Q04DX003 (ip), vehicle: alcohol 93 % of control | dose: 200.0 mg/kg/injection, schedule: Q04DX003 (ip), vehicle: alcohol 100 % of control | dose: 400.0 mg/kg/injection, schedule: Q04DX003 (ip), vehicle: alcohol 88 % of control

CCOc1ccc(NC(=S)NC(=O)c2cccc3ccccc23)cc1
inactive: [1] 96 % of control | [11] 92 % of control | [2] 96 % of control | [12] 100 % of control | [3] 95 % of control | [13] 92 % of control

CC(C)=Cc1ccccc1
inactive: [14] 98 % of control | [15] 95 % of control | [16] 93 % of control | [17] 87 % of control | [18] 94 % of control

CC(C)(C)c1ccc(SC/C=C/COc2ccccc2)cc1
inactive: dose: 75.0 mg/kg/injection, schedule: Q01DX009 (ip), vehicle: Klucel (hydroxypropylcellulose) (HPC) 101 % of control | dose: 150.0 mg/kg/injection, schedule: Q01DX009 (ip), vehicle: Klucel (hydroxypropylcellulose) (HPC) 90 % of control | dose: 300.0 mg/kg/injection, schedule: Q01DX009 (ip), vehicle: Klucel (hydroxypropylcellulose) (HPC) 91 % of control

CP1CCC(O)(c2ccccc2)CC1 (stereo not given)
inactive: [19] 88 % of control | dose: 200.0 mg/kg/injection, schedule: Q04DX002 (ip), vehicle: Klucel (hydroxypropylcellulose) (HPC) 103 % of control | dose: 400.0 mg/kg/injection, schedule: Q04DX002 (ip), vehicle: Klucel (hydroxypropylcellulose) (HPC) 95 % of control

CC(C)(C)C(=O)OCN1CCOCC1
inactive: [4] 106 % of control | [5] 103 % of control | [6] 108 % of control

C=CCC1CC2CC(C1C)C2(C)C (stereo not given)
inactive: dose: 50.0 mg/kg/injection, schedule: Q01DX009 (ip), vehicle: saline with Tween-80 93 % of control | [14] 101 % of control | [16] 93 % of control

CC1(C)CCc2cc3c(O)c(-c4ccccc4)c(=O)oc3cc2O1
inactive: [11] 97 % of control | [12] 91 % of control | [13] 91 % of control

CN(C)C(=O)Sc1ccc(S(=O)(=O)F)cc1Cl
inactive: dose: 100.0 mg/kg/injection, schedule: Q04DX003 (ip), vehicle: Klucel (hydroxypropylcellulose) (HPC) 101 % of control | dose: 200.0 mg/kg/injection, schedule: Q04DX003 (ip), vehicle: Klucel (hydroxypropylcellulose) (HPC) 106 % of control | dose: 400.0 mg/kg/injection, schedule: Q04DX003 (ip), vehicle: Klucel (hydroxypropylcellulose) (HPC) 101 % of control

C=CCCC(C)=O
inactive: dose: 100.0 mg/kg/injection, schedule: Q04DX002 (ip), vehicle: saline with Tween-80 102 % of control | dose: 200.0 mg/kg/injection, schedule: Q04DX002 (ip), vehicle: saline with Tween-80 102 % of control | dose: 400.0 mg/kg/injection, schedule: Q04DX002 (ip), vehicle: saline with Tween-80 102 % of control

C=C1CC2(CCC3(CC2)CC(=C)C(=O)O3)OC1=O (stereo not given)
inactive: dose: 12.5 mg/kg/injection, schedule: Q04DX003 (ip), vehicle: saline 102 % of control | dose: 25.0 mg/kg/injection, schedule: Q04DX003 (ip), vehicle: saline 116 % of control | dose: 50.0 mg/kg/injection, schedule: Q04DX003 (ip), vehicle: saline 119 % of control

Cc1c(C(=O)NN)no[n+]1[O-]
inactive: dose: 25.0 mg/kg/injection, schedule: Q04DX002 (ip), vehicle: Klucel (hydroxypropylcellulose) (HPC) 96 % of control | dose: 50.0 mg/kg/injection, schedule: Q04DX002 (ip), vehicle: Klucel (hydroxypropylcellulose) (HPC) 93 % of control | [19] 93 % of control

Nc1ccc(Nc2ncnc3nc[nH]c23)cc1
inactive: [15] 102 % of control | [17] 98 % of control | [18] 107 % of control

CCCCCCCC(=O)Nc1cccc(OC(=O)NC)c1
inactive: [15] 98 % of control | [17] 94 % of control | [18] 96 % of control

NCCN(CCN)CCN
inactive: [7] 108 % of control | [8] 96 % of control | [9] 96 % of control | [10] 124 % of control
